Reference: patent publication US11236086B2, “Substituted pyrrolopyridines as inhibitors of activin receptor-like kinase” (BLUEPRINT MEDICINES CORPORATION, priority 2017, dated 2022)

Experiments:
[1] = target: T1, ALK2R206H (mutant ALK2, N-terminally tagged with GST) (Homo sapiens, UniProt Q04771, R206H); experiment: ALK binding assay (LANTHASCREEN TR-FRET competitive binding, displacement of Kinase Tracer 178); conditions: read-out: Binding Assay (IC50 class)
T1 construct: purchased Carna Bioscience or ThermoFisher 09-148 or PV6232
T1 sequence (Q04771 21-509 R206H): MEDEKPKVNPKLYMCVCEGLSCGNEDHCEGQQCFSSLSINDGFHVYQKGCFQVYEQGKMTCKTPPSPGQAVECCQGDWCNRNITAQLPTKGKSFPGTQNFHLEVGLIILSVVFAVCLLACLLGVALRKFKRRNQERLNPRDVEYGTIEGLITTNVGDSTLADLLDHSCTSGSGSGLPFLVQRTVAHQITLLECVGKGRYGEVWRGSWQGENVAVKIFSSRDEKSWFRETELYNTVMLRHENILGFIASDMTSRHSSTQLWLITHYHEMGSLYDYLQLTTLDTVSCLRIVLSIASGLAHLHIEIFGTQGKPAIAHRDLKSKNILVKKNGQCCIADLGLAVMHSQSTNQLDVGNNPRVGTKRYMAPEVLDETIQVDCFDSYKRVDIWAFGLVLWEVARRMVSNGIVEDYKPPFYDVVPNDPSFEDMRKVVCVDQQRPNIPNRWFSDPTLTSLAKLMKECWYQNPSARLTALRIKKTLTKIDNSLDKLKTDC
Outline: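 GST-tagged ALK2 R206H (2-5 nM) mixed with Eu-anti-GST antibody (4-10 nM), Kinase Tracer 178 (50 nM, near its Kd) and compound titration (1% DMSO) in Kinase Buffer A, 30 min at room temperature. Tracer displacement read as TR-FRET ratio, normalized to controls; IC50 from 4-parameter fit.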

human ALK2 R206H = target: T2, human ALK2 R206H (Homo sapiens, UniProt Q04771, R206H); experiment: Cell-based ALK2-R206H cell activity assay (Smad1-Ser463/Ser465 phosphorylation by AlphaLISA in HEK293-ALK2-R206H cells); conditions: phospho-Smad1 AlphaLISA, read-out: Cell Line (Cell Assay, IC50 class)
T2 construct: expressed in transfected cells; host or cells: HEK293 (ATCC CRL1573), lentivirus transduction, blasticidin selection
T2 sequence (Q04771 21-509 R206H): T1 sequence (Q04771 21-509 R206H)
Outline: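 HEK293 stable line expressing human ALK2 R206H with C-terminal FLAG, plated overnight in serum-free medium. Cells were treated 2-3 h with compound over 10 3-fold doses, top 10 μM or 1 μM, in duplicate. Phospho-Smad1 Ser463/465 in lysate was read by AlphaLISA; IC50 was normalised to DMSO (0%) and 1 μM LDN193189 (100%).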

Row | SMILES | IC50 [1] | IC50 (human ALK2 R206H)
1 | Cn1cc(-c2[nH]c3nccc(N4CCN(C(=O)O[C@H]5CCOC5)CC4)c3c2Cl)cn1 [Compound 330] | ≤ 10 nM | ≤ 100 nM
2 | Cc1nc(-c2[nH]c3nccc(N4CCN(C(=O)OC5COC5)CC4)c3c2Cl)cn1C [Compound 331] | ≤ 10 nM | ≤ 100 nM
3 | Cc1nn(C)cc1-c1cc2c(N3CCN(C(=O)[C@H]4CC[C@H](C#N)CC4)CC3)ccnc2[nH]1 [Compound 333] | ≤ 10 nM | 100 to 500 nM
4 | Cc1c(-c2cc3c(N4CCN(C(=O)[C@H]5CC[C@H](C#N)CC5)CC4)ccnc3[nH]2)cnn1C [Compound 334] | ≤ 10 nM | 100 to 500 nM
5 | Cc1nc(-c2[nH]c3nccc(N4CCN(C(=O)OCC(F)F)CC4)c3c2C#N)cs1 [Compound 337] | ≤ 10 nM | ≤ 100 nM
6 | CN(C)CCOc1ccc(-c2cc3c(N4CCN(C(=O)C5CC5)CC4)ccnc3[nH]2)cc1 [Compound 343] | ≤ 10 nM | ≤ 100 nM
7 | Cc1nc(-c2[nH]c3nccc(N4CCN(C(=O)OC5COC5)CC4)c3c2Cl)cs1 [Compound 344] | ≤ 10 nM | ≤ 100 nM
8 | COC(=O)COc1ccc(-c2cc3c(N4CCN(C(=O)C5CC5)CC4)ccnc3[nH]2)cc1 [Compound 348] | ≤ 10 nM | > 500 nM
9 | CC(C)n1cnc(-c2[nH]c3nccc(N4CCN(C(=O)OC5COC5)CC4)c3c2C#N)c1 [Compound 350] | ≤ 10 nM | ≤ 100 nM
10 | CC(C)(C#N)n1cc(-c2cc3c(N4CCN(C(=O)OC5COC5)CC4)ccnc3[nH]2)cn1 [Compound 351] | ≤ 10 nM | 100 to 500 nM
11 | CC(C#N)Cn1cc(-c2cc3c(N4CCN(C(=O)OC5COC5)CC4)ccnc3[nH]2)cn1 (stereo not shown) [Compound 352] | ≤ 10 nM | 100 to 500 nM
12 | CCOC(=O)N1CCN(c2ccnc3[nH]c(-c4ccc([C@]5(O)CCOC5)cc4)cc23)CC1 [Compound 354] | ≤ 10 nM | ≤ 100 nM
13 | CCOC(=O)N1CCN(c2ccnc3[nH]c(-c4ccc([C@@]5(O)CCOC5)cc4)cc23)CC1 [Compound 355] | ≤ 10 nM | ≤ 100 nM
14 | Cc1nc(-c2[nH]c3nccc(N4CCN(C(=O)O[C@H]5C[C@@H](F)C5)CC4)c3c2C#N)cn1C [Compound 356] | ≤ 10 nM | ≤ 100 nM
15 | O=C(OC1COC1)N1CCN(c2ccnc3[nH]c(-c4cn([C@H]5CCOC5)cn4)cc23)CC1 [Compound 359] | ≤ 10 nM | ≤ 100 nM
16 | Cc1nc(-c2[nH]c3nccc(N4CCN(C(=O)OCC(F)F)CC4)c3c2Cl)cn1C [Compound 363] | ≤ 10 nM | ≤ 100 nM
17 | Cc1nc(-c2[nH]c3nccc(N4CCN(C(=O)O[C@H]5C[C@H](F)C5)CC4)c3c2C#N)cs1 [Compound 365] | ≤ 10 nM | ≤ 100 nM
18 | Cn1cc(-c2[nH]c3nccc(N4CCN(C(=O)O[C@H]5CCC5(F)F)CC4)c3c2C#N)cn1 [Compound 367] | ≤ 10 nM | ≤ 100 nM
19 | Cn1cnc(-c2[nH]c3nccc(N4CCN(C(=O)O[C@H]5CCC5(F)F)CC4)c3c2C#N)c1 [Compound 369] | ≤ 10 nM | ≤ 100 nM
20 | Cn1cnc(-c2[nH]c3nccc(N4CCN(C(=O)OC5CC(F)(F)C5)CC4)c3c2C#N)c1 [Compound 370] | ≤ 10 nM | ≤ 100 nM
21 | O=C(OC1COC1)N1CCN(c2ccnc3[nH]c(-c4nc5c(s4)COCC5)cc23)CC1 [Compound 371] | ≤ 10 nM | ≤ 100 nM
22 | CC(C)(C)c1csc(-c2cc3c(N4CCN(C(=O)OC5COC5)CC4)ccnc3[nH]2)n1 [Compound 372] | ≤ 10 nM | ≤ 100 nM
23 | CC(C)(O)c1cnc(-c2cc3c(N4CCN(C(=O)OC5COC5)CC4)ccnc3[nH]2)s1 [Compound 377] | ≤ 10 nM | ≤ 100 nM
24 | CC(C)(O)c1nc(-c2cc3c(N4CCN(C(=O)OC5COC5)CC4)ccnc3[nH]2)cs1 [Compound 378] | ≤ 10 nM | 100 to 500 nM
25 | CC(C)(C#N)c1ccc(-c2cc3c(N4CCN(C(=O)OC5COC5)CC4)ccnc3[nH]2)nc1 [Compound 383] | ≤ 10 nM | ≤ 100 nM
26 | O=C(C1CC1)N1CCN(c2ccnc3[nH]c(-c4ccc(C5CCNCC5F)cc4)cc23)CC1 (stereo not shown) [Compound 389] | ≤ 10 nM | ≤ 100 nM

Other lines, results leading:

Row | IC50 [1] | IC50 (human ALK2 R206H) | SMILES
27 | ≤ 10 nM | 100 to 500 nM | Cn1cc(-c2[nH]c3nccc(N4CCN(C(=O)O[C@@H]5CCOC5)CC4)c3c2Cl)cn1 [Compound 332]
28 | ≤ 10 nM | ≤ 100 nM | O=C(C1CC1)N1CCN(c2ccnc3[nH]c(-c4ccc(N5CCOCC5)cc4)cc23)CC1 [Compound 335]
29 | ≤ 10 nM | 100 to 500 nM | Cn1ncc(-c2cc3c(N4CCN(C(=O)OC5COC5)CC4)ccnc3[nH]2)c1C(F)F [Compound 336]
30 | ≤ 10 nM | ≤ 100 nM | Cn1cc(-c2[nH]c3nccc(N4CCN(C(=O)O[C@H]5C[C@H](F)C5)CC4)c3c2Cl)cn1 [Compound 340]
31 | ≤ 10 nM | ≤ 100 nM | CCOC(=O)N1CCN(c2ccnc3[nH]c(-c4cnn(C)c4)c(Br)c23)CC1 [Compound 341]
32 | ≤ 10 nM | ≤ 100 nM | N#Cc1c(-c2cn3c(n2)CCC3)[nH]c2nccc(N3CCN(C(=O)OC4COC4)CC3)c12 [Compound 342]
33 | ≤ 10 nM | ≤ 100 nM | O=C(O[C@H]1C[C@H](F)C1)N1CCN(c2ccnc3[nH]c(-c4cn(C(F)F)cn4)cc23)CC1 [Compound 345]
34 | ≤ 10 nM | ≤ 100 nM | CC#Cc1c(-c2cn(C)c(C)n2)[nH]c2nccc(N3CCN(C(=O)OC4COC4)CC3)c12 [Compound 347]
35 | ≤ 10 nM | ≤ 100 nM | COc1ccc(-c2cc3c(N4CCN(C(=O)[C@H]5CC[C@H](O)CC5)CC4)ccnc3[nH]2)cc1 [Compound 349]
36 | ≤ 10 nM | ≤ 100 nM | Cc1nc(-c2[nH]c3nccc(N4CCN(C(=O)O[C@H]5C[C@H](F)C5)CC4)c3c2C#N)cn1C [Compound 357]
37 | ≤ 10 nM | 100 to 500 nM | O=C(OC1COC1)N1CCN(c2ccnc3[nH]c(-c4cn([C@@H]5CCOC5)cn4)cc23)CC1 [Compound 358]
38 | ≤ 10 nM | ≤ 100 nM | CCS(=O)(=O)c1ccc(-c2cc3c(N4CCN(C(=O)C5CC5)CC4)ccnc3[nH]2)cc1 [Compound 362]
39 | ≤ 10 nM | ≤ 100 nM | Cn1cc(-c2[nH]c3nccc(N4CCN(C(=O)O[C@@H]5CCC5(F)F)CC4)c3c2C#N)cn1 [Compound 366]
40 | ≤ 10 nM | ≤ 100 nM | Cn1cnc(-c2[nH]c3nccc(N4CCN(C(=O)O[C@@H]5CCC5(F)F)CC4)c3c2C#N)c1 [Compound 368]
41 | ≤ 10 nM | ≤ 100 nM | Cn1cc(-c2[nH]c3nccc(N4CCN(C(=O)[C@H]5CC[C@H](C#N)CC5)CC4)c3c2C#N)cn1 [Compound 374]
42 | ≤ 10 nM | ≤ 100 nM | N#Cc1c(-c2cn(C(F)F)cn2)[nH]c2nccc(N3CCN(C(=O)OC4COC4)CC3)c12 [Compound 375]
43 | ≤ 10 nM | ≤ 100 nM | N#Cc1c(-c2cnn(C(F)F)c2)[nH]c2nccc(N3CCN(C(=O)OC4COC4)CC3)c12 [Compound 376]
44 | ≤ 10 nM | ≤ 100 nM | CN1CCN(c2ccc(-c3cc4c(N5CCN(C(=O)C6CC6)CC5)ccnc4[nH]3)cc2)CC1 [Compound 380]
45 | ≤ 10 nM | ≤ 100 nM | CC(C)n1cc(-c2cc3c(N4CCN(C(=O)[C@H]5CC[C@H](C#N)CC5)CC4)ccnc3[nH]2)cn1 [Compound 381]
46 | ≤ 10 nM | ≤ 100 nM | CN1CCN(c2ccc(-c3cc4c(N5CCN(C(=O)C6CC6)CC5)ccnc4[nH]3)cn2)CC1 [Compound 382]
47 | ≤ 10 nM | ≤ 100 nM | O=C(C1CC1)N1CCN(c2ccnc3[nH]c(-c4ccc(C5(O)CCCOC5)cc4)cc23)CC1 (stereo not shown) [Compound 385]
48 | ≤ 10 nM | ≤ 100 nM | O=C(C1CC1)N1CCN(c2ccnc3[nH]c(-c4ccc(C5(O)CCOCC5)cc4)cc23)CC1 [Compound 386]
49 | ≤ 10 nM | ≤ 100 nM | Cc1nc(-c2cc3c(N4CCN(C(=O)OC5CS(=O)(=O)C5)CC4)ccnc3[nH]2)cs1 [Compound 387]
50 | ≤ 10 nM | 100 to 500 nM | CN(C)C(=O)COc1ccc(-c2cc3c(N4CCN(C(=O)C5CC5)CC4)ccnc3[nH]2)cc1 [Compound 388]
51 | ≤ 10 nM | ≤ 100 nM | O=C(C1CC1)N1CCN(c2ccnc3[nH]c(-c4ccc(C5(F)CCCNC5)cc4)cc23)CC1 (stereo not shown) [Compound 390]
52 | ≤ 10 nM | ≤ 100 nM | O=C(OC1COC1)N1CCN(c2ccnc3[nH]c(-c4ccc(C5(O)CCC5)cc4)cc23)CC1 [Compound 392]
53 | ≤ 10 nM | ≤ 100 nM | N#Cc1c(-c2cn3c(n2)COCC3)[nH]c2nccc(N3CCN(C(=O)OC4COC4)CC3)c12 [Compound 394]
